Series [1] deals with patient blasts. Put plainly: Ex vivo AML patient samples, viable blasts by flow cytometry, 5-day assay. The following applies: five days; for activity against blasts: AML patient samples; for pIC50: six AML patient samples, read-out: median IC50 (absolute) against blasts. Format: cell-based, human. The method, then: (§1) AML cells were rapidly thawed in a 37° C. water bath and treated with Denarase (250 U/μl). The cells were cultured in SFEM II medium ([…] Technologies) supplemented with 20 ng/ml SCF, 20 ng/ml TPO, and 20 ng/ml FLT3-L. The compounds were added the same day to 96-well conical bottom plates at seven different concentrations using an acoustic liquid handling device (Echo 550, Labcyte Inc), on top of 10 μl of culturing medium/well. A total of 100,000 cells were seeded per well in a volume of 100 μl. […] All antibodies were obtained from BD biosciences and used at a dilution of 1:100, except CD3 in 1:50. Following a 20-minute incubation with the antibodies, the cells were centrifuged, and 25 μl of Annexin-V and 7-AAD mixture, both diluted 1:50 in Annexin V binding buffer, were added to each well. After a 10-minute incubation, the total number of viable blasts (CD34 or CD117), lymphocytes (CD3) and CD33-positive cells in each well was counted using Forecyte software (Sartorius) and normalized to DMSO control containing wells.
(§2) The AML samples were exposed to LNAuM, lintuzumab, MMAU, or gemtuzumab ozogamicin (GO; Mylotarg, Pfizer) for five days, after which remaining viable blast and lymphocytes were quantified using flow cytometry. […] Subsequently, we assessed toxicity against lymphocytes (CD33-negative) in the same samples.

Series [2] relates to patient lymphocytes. Put plainly: Ex vivo AML patient samples, viable lymphocytes by flow cytometry, 5-day assay. The following applies: CD33-negative lymphocytes in AML patient samples, five days. The method, then:
as §1, §2
A general note: A flow cytometer gives signals particle by particle.

Series [3] relates to MOLM-13 cells. As to the kind of experiment: MOLM-13 cell mouse xenograft efficacy study. The following applies: for toxicity in mice: clinical signs, general behavior, macroscopic changes in major organs; for Average tumor size / Tumor size of individual mice / TGI (average tumor size compared to Vehicle): day 15 after tumor inoculation, combination of the two; for Average tumor size / Tumor size of individual mice: LNAuM 0.3 mg/kg single dose i.v., venetoclax 100 mg/kg p.o. daily; for TGI (average tumor size compared to Vehicle): LNAuM 0.3 mg/kg single dose.

Series [4] relates to HL-60 cells. Put plainly: Toxicity assay of chemotherapeutic agents, HL-60 cells (PrestoBlue viability). In kind it is cell-based, human. The procedure: HL-60 cells (ATCC®, cat. no. CCL-240™), derived from human promyelocytic leukemia, were cultured in Iscove's Modified Dulbecco's Medium (Gibco, Life Technologies) supplemented with 20% heat inactivated FBS (Gibco, Life Technologies).
For toxicity assay, HL-60 cells were seeded for 7500 cells/well of 96-well plate. The chemotherapeutic agents were added as 2-fold stock solutions and incubated with cells for 5 days.
All other compounds were tested at concentrations 0.1, 1, 10, 100, 1000, and 10 000 nM. […] The percentage of viable cells was calculated by dividing the sample absorbance value with untreated cell control value and multiplying by 100%.
All compounds were tested at concentrations of 0.1-10 000 nM.
IC50 values were determined after average % and standard deviations were transferred to GraphPad Prism 9.1.2. Dose-response curves were generated and the IC50% values of the samples were obtained by non-linear regression analysis (Inhibitor vs. response, variable slope (four parameters)) using the software.

For series [5], the system named is KG-1 cells. Put plainly: Toxicity of chemotherapeutic agents, KG-1 cells (PrestoBlue viability). In kind it is cell-based. The following applies: 4 days. The procedure:
Toxicity of chemotherapeutic agents was tested with high CD33-positive KG-1 cell line (DSMZ-German Collection of Microorganisms and Cell Cultures; Cat. No. ACC 14). KG-1 cells were seeded to non-treated 96-well plate 15000 cells/well and diluted compounds were added to cells in duplicates. Dilution series (1:10) of compounds were prepared starting from 20 μM to 0.2 nM and when added to cells they diluted 2× more. Cell control was untreated cells in culture medium.
Cells with chemotherapeutic agents were cultured for 4 days and then the viability was measured with PrestoBlue cell viability reagent according to the manufacturer's (Life Technologies) instructions. Results were calculated from 5-hour Prestoblue reaction and the percentage of viable cells was calculated by dividing the sample absorbance value with cell control value.

The subject of series [6] is MOLM-13 cells. As to the kind of experiment: Toxicity assay of chemotherapeutic agents, MOLM-13 cells (PrestoBlue viability). Format: cell-based, human. The following applies: 4 days. The method, then: For toxicity assay, MOLM-13 cells were seeded for 10 000 cells/well of 96-well plate. The tested chemotherapeutic agents were added as 2-fold stock solutions and incubated in duplicate with cells for 4 days. The compounds were tested at concentrations 0.1, 1, 10, 100, 1000, and 10 000 nM. […] After 4 days incubation, the viability of the cells was determined with PrestoBlue Cell Viability Reagent (Life Technologies) according to the manufacturer's instructions. The percentage of viable cells was calculated by dividing the sample absorbance value with untreated cell control value and multiplying by 100%.

Setting [7] is: Homo sapiens, 120 h, HL-60 cells, 5 days incubation, read-out: IC50.

pIC50: −log10 of the molar value. Several values for one entry are separate records, joined by “and”; a condition that tells them apart may be missing. Identical values can stand only once. Counter-ions that a name gives are not always drawn. Like-named read-outs stand apart in the source and are kept apart here.

For the compound “lintuzumab: anti-CD33 antibody comprising the light chain of SEQ ID NO:1 and the heavy chain of SEQ ID NO:2”, in series [1], the activity against blasts result is “modest or no activity”. Also, the “cytotoxic activity against lymphocytes” value in series [2] was “did not exhibit cytotoxic activity”. The tumor growth inhibition result in series [3] (lintuzumab naked antibody 10 mg/kg single dose, non-binding IgG1 ADC control 3 mg/kg single dose) is recorded as “only modest tumor growth inhibition”.
As a reminder, the pIC50 is −log10 of the IC50, conventionally taken in molar units. As for `COc1cccc2c1C(=O)c1c(O)c3c(c(O)c1C2=O)C[C@@](O)(C(C)=O)C[C@@H]3O[C@H]1C[C@H](N)[C@H](O)[C@H](C)O1` [Daunorubicin-HCl], the pIC50 in series [4] (Homo sapiens, HL-60, 120 h) was 7.82; in series [5] (Homo sapiens, 96 h) it was 7.26; in series [6] (Homo sapiens, 96 h), 7.89.
`CO[C@@H]1[C@H](N(C)C(=O)c2ccccc2)C[C@H]2O[C@]1(C)n1c3ccccc3c3c4c(c5c6ccccc6n2c5c31)C(=O)NC4` [Midostaurin] showed a pIC50 in series [6] (Homo sapiens, 96 h) of 7.85.
“LNAuM: antibody-drug-conjugate (ADC) comprising the lintuzumab antibody, conjugated to MMAU, via a cleavable linker”: the negative logarithm of the IC50 (pIC50) in series [1] was 7.80. For the same compound, the “cytotoxic activity against lymphocytes” value in series [2] is reported as “did not exhibit cytotoxic activity”. For the same compound, the “tumors disappeared and did not regrow during the whole study” value in series [3] (LNAuM single dose of 3 mg/kg) is listed as 6/6. For the same compound, in series [3] (all doses (LNAuM 0.1-3 mg/kg single dose; venetoclax 100 mg/kg, 10 daily doses)), the “tumor growth versus control group” value was “inhibited tumor growth”. Moreover, in series [3], the toxicity in mice result was “no toxicity”; the Average tumor size is listed as 201 mm^3; the “Tumor size of individual mice” value was 204.723 mm^3 and 229.992 mm^3 and 239.704 mm^3 and 153.6 mm^3 and 106.624 mm^3 and 271.472 mm^3. In addition, the “TGI (average tumor size compared to Vehicle)” value in series [3] (venetoclax 100 mg/kg) turned out to be 0.46. Further, the “outcome at study end” value in series [3] (day 54 after tumor inoculation, venetoclax 100 mg/kg, LNAuM 1 mg/kg, combination) is “two animals were sacrificed due to tumor growth, and in the rest of the animals there was a palpable tumor”.
For the compound `CC1(C)CCC(CN2CCN(c3ccc(C(=O)NS(=O)(=O)c4ccc(NCC5CCOCC5)c([N+](=O)[O-])c4)c(Oc4cnc5[nH]ccc5c4)c3)CC2)=C(c2ccc(Cl)cc2)C1` [Venetoclax], the pIC50 is 6.95 in series [4] (setting [7]); 5.64 in series [5] (Homo sapiens, 96 h); 7.62 in series [6] (Homo sapiens, 96 h). In series [3], the toxicity in mice entry is recorded as “no toxicity”. In addition, the Average tumor size in series [3] is listed as 194 mm^3. Also, in series [3], the “Tumor size of individual mice” value was 134.946 mm^3 and 184.96 mm^3 and 249.64 mm^3 and 246.895 mm^3 and 122.793 mm^3 and 226.1475 mm^3. The “TGI (average tumor size compared to Vehicle)” value in series [3] (venetoclax 100 mg/kg) is on record as 0.45.
Turning to `Nc1ccn([C@@H]2O[C@H](CO)[C@@H](O)[C@@H]2O)c(=O)n1` [Cytarabine], the pIC50 in series [4] (setting [7]) was 6.53; in series [5] (Homo sapiens, 96 h), 6.64; in series [6] (Homo sapiens, 96 h), 6.95.
On to `CCC(C)C(C(CC(=O)N1CCCC1C(OC)C(C)C(=O)NC(C)C(OC1OC(C(=O)O)C(O)C(O)C1O)c1ccccc1)OC)N(C)C(=O)C(NC(=O)C(NC)C(C)C)C(C)C` [MMAU, monomethylauristatin E β-D-glucuronide], for which the activity against blasts result in series [1] is given as “modest or no activity”. The “cytotoxic activity against lymphocytes” value in series [2] is reported as “did not exhibit cytotoxic activity”.
gemtuzumab ozogamicin [GO]: the results for the pIC50 in series [1] and in series [2] (read-out: median IC50 against lymphocytes) were 9.52 and 8.05, respectively. In series [2], the “cytotoxic activity against lymphocytes” value is recorded as “significant lymphocyte toxicity”.
With Gilteritinib hemifumarate, the pIC50 in series [4] (read-out: IC50) is 6.37; in series [5], 5.77; in series [6], 7.62.

Source of the values: patent US20260207760A1, “COMBINATIONS OF CD33 ANTIBODY DRUG CONJUGATE WITH CHEMOTHERAPEUTIC AGENTS” (Glykos Biomedical Oy, priority 2022, published 2026).
